From patent publication US8735445B2, “Inhibitors of 15-hydroxyprostaglandin dehydrogenase for stimulating pigmentation of the skin or skin appendages” (L'Oreal, priority 2003, dated 2014) come the findings set out here.

The structures appear in SMILES notation. Read-outs that look alike come from different tables or passages of the source.

In one experiment the target is T1, PGF synthase (PGFS) (Homo sapiens, UniProt P42330).
T1 sequence (P42330 1-323): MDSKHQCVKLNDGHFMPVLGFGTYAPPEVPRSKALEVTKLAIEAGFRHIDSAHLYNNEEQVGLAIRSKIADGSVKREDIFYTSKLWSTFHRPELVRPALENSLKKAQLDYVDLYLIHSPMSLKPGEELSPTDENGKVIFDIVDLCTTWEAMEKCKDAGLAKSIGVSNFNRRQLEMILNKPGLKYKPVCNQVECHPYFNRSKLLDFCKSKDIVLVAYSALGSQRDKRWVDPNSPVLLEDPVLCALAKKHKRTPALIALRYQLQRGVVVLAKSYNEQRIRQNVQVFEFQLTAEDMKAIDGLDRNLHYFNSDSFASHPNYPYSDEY
The experiment can be described thus: Test on PGFS (PGF synthase; phenanthrenequinone/NADPH, 340 nm). The class given is biochemical. The protocol: The PGF synthase enzyme is obtained as described in FR-A-02/05067, at a concentration of 0.5 mg/ml, in suspension in an appropriate medium, and is blocked at −80° C. For the needs of the test, this suspension is thawed and stored in ice.
Moreover, a 100 mM Tris buffer, pH=6.5, containing 20 μM of 9.10-phenanthrenequinone* (P2896, Sigma-Aldrich, L′ isle D'Abeau Chesne, BP 701, 38297, Saint Quentin Fallavier) and 100 μM of β-NAPDH(N1630, Sigma-Aldrich, L'isle D'Abeau Chesne, BP 701, 38297, Saint Quentin Fallavier), is prepared in a brown bottle (exclusion of light).
*A stock solution having a titer of 1 mM is prepared in absolute ethanol, brought to 40° C.; the flask is placed in an ultrasound tank so as to facilitate solubilization of the product.
0.950 ml of this buffer (brought beforehand to 37° C.) is introduced into the cuvette of a spectrophotometer (Perkin-Elmer, Lambda 2) thermostatically controlled at 37° C., the measuring wavelength of which is set at 340 nm. 0.05 ml of enzymatic suspension at 37° C. is introduced into the cuvette concomitantly with the recording (corresponding to a decrease in optical density at 340 nm). The maximum reaction rate is recorded. […]

The test system of the next experiment is melanocyte line MeWo. The experiment can be described thus: Protection of PGF2α in melanocyte line MeWo. The class given is cell-based. Conditions: 4 hours, MeWo melanocytes. The protocol: An ampoule of Mewo melanocytes (American type cell collection, HTB-65) is amplified (75 cm^2 flask, Costar), in DMEM medium (Gibco)+10% fetal calf serum+2 mM of L-glutamine+1% of antibiotics (Gibco). After confluence, these cells (48 hours to 72 hours) are resuspended in this same culture medium, after the action of trypsin (according to a procedure conventionally used in cell culture), in a proportion of 600 000 cells per ml.
200 μl of this suspension are introduced into n times 6 wells (n being the total number of assays, i.e., x molecules at 2 concentrations) of a 96-well plate (Costar). The plate is placed in an incubator at 37° C. under 5% CO2.
Preparation, in DMSO of the 1000× stock solutions of the active agents to be evaluated (i.e., 5 and 25 mM).
Removal of the supernatants from the cultures previously prepared (96-well plate), and rinsing with 100 μl/well of DMEM medium+additives (see above description) preheated to 37° C.
Introduction of 100 μl/well of DMEM medium (+additives) containing 0.1 μl of DMSO (control) or 0.1 μl of the stock solution of the active agent to be evaluated (there are 6 assay wells per molecule and per concentration).
Practically 1 ml of solution is prepared for each of the active agents (and per concentration) to be tested, therefore 1 ml of medium+1 μl of DMSO (control) or of 1000× stock solution.
The plate is again placed in an incubator at 37° C. under 5% CO2 for 4 hours, and then a PGF2α assay is carried out on 50 μl of each of the supernatants (of the various assays) by means of an immunoenzymatic kit (according to the supplier's recommendations (PGF2α, EIA kit, ref. 516011, Cayman)).
Results (as % of the amount of PGF2α measured under the control conditions): […]

The next experiment deals with T2, 15-PGDH (Homo sapiens, UniProt P15428).
T2 construct: GST (from vector pGEX-4T3); made in house; host or cells: E. coli BL21 DE3plys
T2 sequence (P15428 1-266): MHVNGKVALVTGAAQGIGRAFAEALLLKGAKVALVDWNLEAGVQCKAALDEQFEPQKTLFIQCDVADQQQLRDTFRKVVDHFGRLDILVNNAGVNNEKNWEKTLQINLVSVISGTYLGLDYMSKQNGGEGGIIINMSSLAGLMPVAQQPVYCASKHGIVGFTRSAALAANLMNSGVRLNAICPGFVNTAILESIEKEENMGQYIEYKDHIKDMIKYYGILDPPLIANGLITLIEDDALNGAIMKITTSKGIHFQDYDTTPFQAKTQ
Put plainly: 15-PGDH test (spectrophotometric, NADH at 340 nm, PGE2 substrate). The class given is biochemical. The note with it: Example I-5. The protocol:
The enzyme obtained is at a concentration of 0.3 mg/ml and is blocked at −80° C. This suspension is thawed and stored in ice.
A 100 mM Tris buffer, pH—7.4, containing 0.1 mM of dithiothreitol (D5545, Sigma-Aldrich, L'isle D'Abeau Chesne, BP 701, 38297, Saint Quentin Fallavier), 1.5 mM of 13-NAD (N6522, Sigma-Aldrich, L'isle D'Abeau Chesne, BP 701, 38297, Saint Quentin Fallavier) and 50 μM of prostaglandin E2 (P4172, Sigma-Aldrich, L'isle D'Abeau Chesne, BP 701, 38297, Saint Quentin Fallavier) is prepared.
0.965 ml of this buffer (brought to 37° C. beforehand) is placed in the cuvette of a spectrophotomer (Perkin-Elmer, Lambda 2) thermostated at 37° C., the measuring wavelength of which is set at 340 nm. 0.035 ml of enzyme suspension at 37° C. is placed in the cuvette concomitantly with the recording (increase in optical density at 340 nm).
The maximum reaction rate is recorded.
The assay values (molecules) are compared with the control value (without molecule), and the results are expressed as % of the control value.
The assay is carried out as described in example 4a.
The methodology is that described in example 1-5.

Take `COc1ccccc1/C=C(\C#N)c1nn(-c2ccccc2)c(N)c1C#N` [Compound 9 of example II]: at PGF synthase (PGFS) (Example II-2, read-out: Inhibition of PGF synthase IC50fs), the IC50 is over 50 µM.

As to `O=C1NC(=O)/C(=C/c2ccc(-c3ccc(C(=O)O)cc3)o2)S1` [Compound 1a of example I], the “% of the amount of PGF2α measured under the control conditions” value with melanocyte line MeWo (5 μM) is “+67%”; in the experiment with melanocyte line MeWo (25 μM), “+51%”.

In the case of `O=C1NC(=O)/C(=C/c2ccc(-c3ccc(C(=O)O)cc3)o2)S1` [Compound 1, 4-{5-[(2,4-dioxo-1,3-thiazolidin-5-ylidene)methyl]-2-furyl}benzoic acid], the IC50 on PGF synthase (PGFS) (Example I-5, read-out: Inhibition of PGFS IC50fs) was determined as 4 µM; on 15-PGDH (read-out: Inhibition 15-PGDH IC50dh) it was 300 nM.

Take `O=C1NC(=O)C(=Cc2ccc(-c3ccc(C(=O)O)cc3)o2)S1` [Compound 1 of example I, 4-{5-[(2,4-dioxo-1,3-thiazolidin-5-ylidene)methyl]-2-furyl}benzoic acid]: the IC50fs/IC50dh ratio entry at 15-PGDH (selectivity for 15-PGDH with respect to PGFS) is “greater than 13”.

With `COC(=O)c1cc(/N=N/c2ccc(O)c(CC(=O)O)c2)cc(C(=O)OC)c1` [PhCL28A, reference compound], the “% of the amount of PGF2α measured under the control conditions” value with melanocyte line MeWo (5 μM) was “+43%”; with melanocyte line MeWo (25 μM) it was “+147%”.
